In ChEMBL document CHEMBL4033648, “Eco-friendly synthesis of novel cyanopyridine derivatives and their anticancer and PIM-1 kinase inhibitory activities” (Eur J Med Chem, 2017):

How the values were obtained:
MCF7 = test: Cytotoxicity against human MCF7 cells; type: functional, cell-based
[1] = molecular target: Serine/threonine-protein kinase pim-1 (Homo sapiens, UniProt P11309); test: Inhibition of human PIM1 measured after 5 mins by ELISA relative to control
HCT-116 = test: Cytotoxicity against human HCT116 cells; type: functional, cell-based
HepG2 [2] = test: Cytotoxicity against human HepG2 cells; type: functional, cell-based
HepG2 [3] = test: Induction of apoptosis in human HepG2 cells assessed as decrease in Bcl2 level by qRT-PCR analysis relative to control; type: functional
HepG2 [4] = test: Induction of apoptosis in human HepG2 cells assessed as increase in Bax/Bcl2 ratio by qRT-PCR analysis relative to control; type: functional
HepG2 [5] = test: Induction of apoptosis in human HepG2 cells assessed as upregulation of caspase 3 level measured up to 30 mins by immunoassay relative to control; type: functional
HepG2 [6] = test: Induction of apoptosis in human HepG2 cells assessed as increase in Bax level by qRT-PCR analysis relative to control; type: functional

SMILES	IC50 (MCF7)	IC50 [1]	inhibition [1]	IC50 (HCT-116)	IC50 (HepG2 [2])	fold change (FC) (HepG2 [3])	fold change (FC) (HepG2 [4])	fold change (FC) (HepG2 [5])	fold change (FC) (HepG2 [6])
COc1ccc(-c2cc(-c3cc4c(ccc5ccccc54)oc3=O)[nH]c(=O)c2C#N)cc1	36.7 µM	10.6 µM	83.1%	24.9 µM	36.3 µM	–	–	–	–
N#Cc1c(-c2cccc3ccccc23)cc(-c2ccc3ccccc3c2)nc1N	19.2 µM	1.16 µM	86.5%	20.5 µM	11.9 µM	–	–	–	–
N#Cc1c(-c2cccc3ccccc23)cc(-c2cc3c(ccc4ccccc43)oc2=O)nc1N	80.7 µM	25.5 µM	61.5%	30.6 µM	45.8 µM	–	–	–	–
N#Cc1c(-c2cccc3ccccc23)cc(-c2cccs2)[nH]c1=O	27.1 µM	4.8 µM	77.8%	28.6 µM	35.9 µM	–	–	–	–
N#Cc1c(-c2cccc3ccccc23)cc(-c2cccs2)nc1N	38.8 µM	–	58.5%	66.7 µM	181 µM	–	–	–	–
N#Cc1c(-c2cccs2)cc(-c2cccs2)nc1N	72.1 µM	7.52 µM	85%	91.2 µM	28.3 µM	–	–	–	–
N#Cc1c(-c2cccc3ccccc23)cc(-c2ccc3ccccc3c2)[nH]c1=O	236 µM	10 µM	81%	228 µM	220 µM	–	–	–	–
N#Cc1c(-c2cccs2)cc(-c2cc3c(ccc4ccccc43)oc2=O)nc1N	59.1 µM	19.3 µM	69.2%	80 µM	35.7 µM	–	–	–	–
COc1cc2c(c(OC)c1OC)-c1ccc(OC)c(=O)cc1[C@@H](NC(C)=O)CC2 [COLCHICINE]	–	4.3 µM	65.1%	–	–	–	–	–	–
N#Cc1c(-c2cccc3ccccc23)cc(-c2cc3c(ccc4ccccc43)oc2=O)[nH]c1=O	25.2 µM	1.47 µM	79.5%	25.9 µM	15.3 µM	–	–	–	–
COc1ccc(-c2cc(-c3cccs3)nc(N)c2C#N)cc1	88.3 µM	–	76.9%	122 µM	104 µM	–	–	–	–
COc1ccc(-c2cc(-c3cccs3)[nH]c(=O)c2C#N)cc1	21.9 µM	6.7 µM	73%	28.7 µM	15.5 µM	–	–	–	–
O=c1[nH]cc(F)c(=O)[nH]1 [FLUOROURACIL]	7.9 µM	–	–	–	8.1 µM	–	–	–	–
N#Cc1c(-c2cccs2)cc(-c2cc3c(ccc4ccccc43)oc2=O)[nH]c1=O	20.6 µM	0.94 µM	89%	36.2 µM	30.5 µM	38.7	22704	5.6	585
COc1ccc(-c2cc(-c3cc4c(ccc5ccccc54)oc3=O)nc(N)c2C#N)cc1	–	–	26%	–	300 µM	–	–	–	–
N#Cc1c(-c2cccs2)cc(-c2cccs2)nc1O	249 µM	3.16 µM	84.8%	187 µM	41.6 µM	–	–	–	–
